According to patent US20260062422A1 (Halda Therapeutics OpCo, Inc., priority 2022, published 2026):

Assays:
VCaP cells = experiment: Cellular growth inhibition assay for VCaP cells, CellTiter-Glo; format: cell-based, human; details: Homo sapiens, VCaP, 72 h, 72 hours treatment, CellTiter-Glo 2.0
In short: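 GI50 values come from four-parameter curve fits of luminescence data normalized to a zero baseline. Compound, in medium with 0.5% DMSO, was added one day after plating and left for 72 h before CellTiter-Glo 2.0 addition.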

[1] = test system: T-Rex 293 cell line SC3 cells having increased expression of androgen receptor protein due to exposure to doxycycline; experiment: Cellular growth inhibition, T-Rex 293 SC3 cells with doxycycline (androgen receptor induced), CellTiter-Glo; format: cell-based; details: T-Rex 293 SC3 cells with 10 ng/mL doxycycline (increased androgen receptor expression)
In short: (§1)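 GI50 came from a four-parameter fit of CellTiter-Glo 2.0 luminescence after 72 h compound exposure (0.5% DMSO, 37 °C), dosing 24 h post-seeding. SC3 clone cells (2500/well), transfected with wild-type androgen receptor, grew in charcoal-stripped serum medium lacking phenol red, induced with 10 ng/mL doxycycline or left uninduced.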

T47D cells = experiment: Cellular growth inhibition assay for T47D cells, CellTiter-Glo; format: cell-based, human; details: Homo sapiens, T47D, 72 h, 72 hours treatment, CellTiter-Glo 2.0 cell viability
In short: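 Cells are plated at 3000/well and allowed 24 h before treatment. Test compound in medium containing 0.5% DMSO is then added, with DMSO-only wells as negative control, and plates are incubated 72 h at 37 °C. ATP luminescence (CellTiter-Glo 2.0) is then fitted to four parameters to derive GI50.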

[2] = test system: T-Rex 293 cell line SC3 cells lacking increased expression of androgen receptor protein; experiment: Cellular growth inhibition, T-Rex 293 SC3 cells without doxycycline, CellTiter-Glo; format: cell-based; details: T-Rex 293 SC3 cells not exposed to doxycycline, CellTiter-Glo 2.0
In short: as §1

Row | SMILES | GI50 (VCaP cells) [nM] | GI50 ([1]; 72 h) [nM] | GI50 (T47D cells) [nM] | GI50 ([2]; 72 h) [nM] | GI50 ([1]; 72 hours) [nM] | GI50 ([2]; 72 hours) [nM]
1 | Cc1sc2c(c1C)C(c1ccc(OC[C@H]3CC[C@]4(CCCN(c5ncc(C(=O)N[C@H]6C(C)(C)[C@H](Oc7ccc(C#N)c(Cl)c7)C6(C)C)cn5)C4)C3)cc1)=N[C@@H](Cc1ncco1)c1nnc(C)n1-2 [Compound I-204] | 500 to 1500 | < 500 | < 500 | > 3000 |  | 
2 | Cc1sc2c(c1C)C(c1ccc(Oc3ncc(C(=O)N[C@H]4C(C)(C)[C@H](Oc5ccc(C#N)c(Cl)c5)C4(C)C)cn3)cc1)=N[C@@H](Cc1ncco1)c1nnc(C)n1-2 [Compound I-205] | < 500 | < 500 | 500 to 1500 | 500 to 1500 |  | 
3 | Cc1sc2c(c1C)C(c1ccc(N3CC(OC4CCN(c5ncc(C(=O)N[C@H]6C(C)(C)[C@H](Oc7ccc(C#N)c(Cl)c7)C6(C)C)cn5)CC4)C3)cc1)=N[C@@H](Cc1ncco1)c1nnc(C)n1-2 [Compound I-206, N-[3-(3-chloro-4-cyano-phenoxy)-2,2,4,4-tetramethyl-cyclobutyl]-2-[4-[1-[4-[(9S)-4,5,13-trimethyl-9-(oxazol-2-ylmethyl)-3-thia-1,8,11,12-tetrazatricyclo[8.3.0.02,6]trideca-2(6),4,7,10,12-pentaen-7-yl]phenyl]azetidin-3-yl]oxy-1-piperidyl]pyrimidine-5-carboxamide] | < 500 | < 500 | < 500 | < 500 |  | 
4 | Cc1sc2c(c1C)C(c1ccc(N3CC4(CCN(c5ncc(C(=O)N[C@H]6C(C)(C)[C@H](Oc7ccc(C#N)c(Cl)c7)C6(C)C)cn5)CC4)C3)cc1)=NC(Cc1ncco1)c1nnc(C)n1-2 (some centres unmarked) [Compound I-207] | 500 to 1500 |  | 500 to 1500 |  | < 500 | > 3000
5 | Cc1sc2c(c1C)C(c1ccc(N3CCC(CC4CCN(c5ncc(C(=O)N[C@H]6C(C)(C)[C@H](Oc7ccc(C#N)c(Cl)c7)C6(C)C)cn5)CC4)CC3)cc1)=N[C@@H](Cc1ncco1)c1nnc(C)n1-2 [Compound I-210] | > 3000 | 500 to 1500 | > 3000 | > 3000 |  | 
6 | Cc1sc2c(c1C)C(c1ccc(N3CCC(CC4CCN(c5ncc(C(=O)N[C@H]6C(C)(C)[C@H](Oc7ccc(C#N)c(Cl)c7)C6(C)C)cn5)CC4)CC3)cc1)=N[C@H](Cc1ncco1)c1nnc(C)n1-2 [Compound I-211] | < 500 | < 500 | < 500 | 500 to 1500 |  | 
7 | Cc1sc2c(c1C)C(c1ccc(CCCOC3CCN(c4ncc(C(=O)N[C@H]5C(C)(C)[C@H](Oc6ccc(C#N)c(Cl)c6)C5(C)C)cn4)CC3)cc1)=N[C@@H](Cc1ccccn1)c1nnc(C)n1-2 [Compound I-212, N-[3-(3-chloro-4-cyano-phenoxy)-2,2,4,4-tetramethyl-cyclobutyl]-2-[4-[3-[4-[(9S)-4,5,13-trimethyl-9-(2-pyridylmethyl)-3-thia-1,8,11,12-tetrazatricyclo[8.3.0.02,6]trideca-2(6),4,7,10,12-pentaen-7-yl]phenyl]propoxy]-1-piperidyl]pyrimidine-5-carboxamide] | < 500 | < 500 | < 500 | > 3000 |  | 
8 | Cc1sc2c(c1C)C(c1ccc(CCCOC3CCN(c4ncc(C(=O)N[C@H]5C(C)(C)[C@H](Oc6ccc(C#N)c(Cl)c6)C5(C)C)cn4)CC3)cc1)=N[C@H](Cc1ccccn1)c1nnc(C)n1-2 [Compound I-213] | < 500 | < 500 | < 500 | > 3000 |  | 
9 | Cc1sc2c(c1C)C(c1ccc(CCCOC3CCN(c4ncc(C(=O)N[C@H]5C(C)(C)[C@H](Oc6ccc(C#N)c(Cl)c6)C5(C)C)cn4)CC3)cc1)=N[C@@H](Cc1cccnc1)c1nnc(C)n1-2 [Compound I-214] | < 500 | < 500 | < 500 | < 500 |  | 
10 | Cc1sc2c(c1C)C(c1ccc(CCCOC3CCN(c4ncc(C(=O)N[C@H]5C(C)(C)[C@H](Oc6ccc(C#N)c(Cl)c6)C5(C)C)cn4)CC3)cc1)=N[C@@H](Cc1ccncc1)c1nnc(C)n1-2 [Compound I-215] | < 500 | < 500 | < 500 | < 500 |  | 
11 | Cc1sc2c(c1C)C(c1ccc(CCCOC3CCN(c4ncc(C(=O)N[C@H]5C(C)(C)[C@H](Oc6ccc(C#N)c(Cl)c6)C5(C)C)cn4)CC3)cc1)=N[C@H](Cc1ccncc1)c1nnc(C)n1-2 [Compound I-216] | < 500 | < 500 | > 3000 | > 3000 |  | 
12 | Cc1sc2c(c1C)C(c1ccc(CCCOC3CCN(c4ncc(C(=O)N[C@H]5C(C)(C)[C@H](Oc6ccc(C#N)c(Cl)c6)C5(C)C)cn4)CC3)cc1)=N[C@H](Cc1cccnc1)c1nnc(C)n1-2 [Compound I-217] | < 500 | < 500 | < 500 | > 3000 |  | 
13 | Cc1sc2c(c1C)C(c1ccc(OC3CC4(CCN(c5ncc(C(=O)N[C@H]6C(C)(C)[C@H](Oc7ccc(C#N)c(Cl)c7)C6(C)C)cn5)CC4)C3)cc1)=N[C@@H](Cc1nnn(C)n1)c1nnc(C)n1-2 [Compound I-218, N-[3-(3-chloro-4-cyano-phenoxy)-2,2,4,4-tetramethyl-cyclobutyl]-2-[2-[4-[(9S)-4,5,13-trimethyl-9-[(2-methyltetrazol-5-yl)methyl]-3-thia-1,8,11,12-tetrazatricyclo[8.3.0.02,6]trideca-2(6),4,7,10,12-pentaen-7-yl]phenoxy]-7-azaspiro[3.5]nonan-7-yl]pyrimidine-5-carboxamide] | < 500 | < 500 | < 500 | > 3000 |  | 
14 | Cc1sc2c(c1C)C(c1ccc(OC3CC4(CCN(c5ncc(C(=O)N[C@H]6C(C)(C)[C@H](Oc7ccc(C#N)c(Cl)c7)C6(C)C)cn5)CC4)C3)cc1)=N[C@H](Cc1nnn(C)n1)c1nnc(C)n1-2 [Compound I-219] | > 3000 | < 500 | > 3000 | > 3000 |  | 
15 | Cc1noc2c1-c1ccccc1C(c1ccc(OC3CC4(C3)CN(c3ncc(C(=O)N[C@H]5C(C)(C)[C@H](Oc6ccc(C#N)c(Cl)c6)C5(C)C)cn3)CCO4)cc1)=N[C@H]2Cc1ncco1 [Compound I-221, N-[3-(3-chloro-4-cyano-phenoxy)-2,2,4,4-tetramethyl-cyclobutyl]-2-[2-[4-[(4S)-1-methyl-4-(oxazol-2-ylmethyl)-4H-isoxazolo[5,4-d][2]benzazepin-6-yl]phenoxy]-5-oxa-8-azaspiro[3.5]nonan-8-yl]pyrimidine-5-carboxamide] | > 3000 | < 500 | > 3000 | > 3000 |  | 
16 | Cc1noc2c1-c1ccccc1C(c1ccc(OC3CC4(CCN(c5ncc(C(=O)N[C@H]6C(C)(C)[C@H](Oc7ccc(C#N)c(Cl)c7)C6(C)C)cn5)CC4)C3)cc1)=N[C@H]2Cc1ncco1 [Compound I-222] | < 500 | < 500 | > 3000 | > 3000 |  | 
17 | Cc1noc2c1-c1ccccc1C(c1ccc(O[C@H]3C[C@]4(CN(c5ncc(C(=O)N[C@H]6C(C)(C)[C@H](Oc7ccc(C#N)c(Cl)c7)C6(C)C)cn5)CCO4)C3)cc1)=N[C@H]2Cc1ncco1 [Compound I-223] | > 3000 | < 500 | > 3000 | > 3000 |  | 
18 | Cc1noc2c1-c1ccccc1C(c1ccc(O[C@H]3C[C@]4(CN(c5ncc(C(=O)N[C@H]6C(C)(C)[C@H](Oc7ccc(C#N)c(Cl)c7)C6(C)C)cn5)CCO4)C3)cc1)=N[C@@H]2Cc1ncco1 [Compound I-224] | < 500 | < 500 | > 3000 | > 3000 |  | 
19 | Cc1sc2c(c1C)C(c1ccc(C=C3CC4(CCCN(c5ncc(C(=O)N[C@H]6C(C)(C)[C@H](Oc7ccc(C#N)c(Cl)c7)C6(C)C)cn5)C4)C3)cc1)=N[C@@H](Cc1ncco1)c1nnc(C)n1-2 [Compound I-225, N-[3-(3-chloro-4-cyano-phenoxy)-2,2,4,4-tetramethyl-cyclobutyl]-2-[2-[[4-[(9S)-4,5,13-trimethyl-9-(oxazol-2-ylmethyl)-3-thia-1,8,11,12-tetrazatricyclo[8.3.0.02,6]trideca-2(6),4,7,10,12-pentaen-7-yl]phenyl]methylene]-6-azaspiro[3.5]nonan-6-yl]pyrimidine-5-carboxamide] | 1500 to 3000 | < 500 | 500 to 1500 | 500 to 1500 |  | 
20 | Cc1sc2c(c1C)C(c1ccc(OC3CC4(CCN(c5ncc(C(=O)N[C@H]6C(C)(C)[C@H](Oc7ccc(C#N)c(Cl)c7)C6(C)C)cn5)CC4)C3)cc1)=N[C@@H](CC#N)c1nnc(C)n1-2 [Compound I-229, N-[3-(3-chloro-4-cyano-phenoxy)-2,2,4,4-tetramethyl-cyclobutyl]-2-[2-[4-[(9S)-9-(cyanomethyl)-4,5,13-trimethyl-3-thia-1,8,11,12-tetrazatricyclo[8.3.0.02,6]trideca-2(6),4,7,10,12-pentaen-7-yl]phenoxy]-7-azaspiro [3.5]nonan-7-yl]pyrimidine-5-carboxamide] | < 500 | < 500 | > 3000 | > 3000 |  | 
